Laboratory results: US20250282820A1, “PEPTIDE COMPLEX HAVING TRKB BINDING ACTIVITY” (PEPTIDREAM INC, priority 2022, published 2025)
*1 amine or outer side, *2 acyl side, *3 side chain or, on linkers, in order; H or OH if unused. Where a SMILES comes first, the peptide text is derived from it. Bridges are numbered along the chain shown (N, C = ends). Roman numbers before positions name the chains, in order. [ ]: non-standard residue; d: D form. ξ: configuration not given here. X1 = O=C(OCCOCCOCCOCCOCCOCCOCCOCCOCCOCCOCCOCCOC(=O)[*:2])[*:1]; PEG8 = NCCOCCOCCOCCOCCOCCOCCOCCOCCC(=O)O; 3Pal = N[C@@H](Cc1cccnc1)C(=O)O; ξK = NCCCCC(N)C(=O)O; ξP = O=C(O)C1CCCN1; ξC = NC(CS)C(=O)O

Experiments:
Type in all cases: cell-based
[1] = target: T1, TrkB (CellSensor TrkB-NFAT-bla CHO-K1 Cell) (Homo sapiens, UniProt Q16620); experiment: NFAT transcriptional reporter assay for TrkB agonist activity; settings: class = peptide concentration giving 50% or more activity; BDNF maximum signal = 100%, no stimulation = 0%; 5 hours culture
T1 construct: host or cells: CHO-K1 (CellSensor TrkB-NFAT-bla CHO-K1)
T1 sequence (Q16620 32-822): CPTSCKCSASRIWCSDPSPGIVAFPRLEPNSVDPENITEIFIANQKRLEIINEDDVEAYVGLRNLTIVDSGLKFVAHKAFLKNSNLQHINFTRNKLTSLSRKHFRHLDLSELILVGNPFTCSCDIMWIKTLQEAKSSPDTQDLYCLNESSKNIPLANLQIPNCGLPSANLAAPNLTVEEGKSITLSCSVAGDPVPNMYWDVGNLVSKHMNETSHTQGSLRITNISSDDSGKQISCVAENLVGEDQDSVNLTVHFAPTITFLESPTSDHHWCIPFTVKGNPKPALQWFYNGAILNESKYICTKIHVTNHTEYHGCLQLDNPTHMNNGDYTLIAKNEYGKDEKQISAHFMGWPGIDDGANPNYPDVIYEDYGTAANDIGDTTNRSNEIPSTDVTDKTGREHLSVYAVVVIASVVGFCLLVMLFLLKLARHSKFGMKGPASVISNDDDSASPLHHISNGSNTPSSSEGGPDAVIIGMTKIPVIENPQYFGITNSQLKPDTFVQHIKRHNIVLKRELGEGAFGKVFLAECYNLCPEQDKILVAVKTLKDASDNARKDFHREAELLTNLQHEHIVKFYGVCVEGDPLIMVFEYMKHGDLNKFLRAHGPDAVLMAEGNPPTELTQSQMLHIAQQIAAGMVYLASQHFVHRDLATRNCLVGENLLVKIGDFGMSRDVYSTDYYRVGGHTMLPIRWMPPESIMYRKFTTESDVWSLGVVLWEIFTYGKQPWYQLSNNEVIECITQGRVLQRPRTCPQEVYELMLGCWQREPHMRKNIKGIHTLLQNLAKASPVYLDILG
Procedure: To evaluate the TrkB activation potency of the TrkB agonist peptide of the present invention, transcriptional activity was examined using transcriptional reporters. The CellSensor (registered trademark) TrkB-NFAT-bla CHO-K1 Cell (Invitrogen) used in the AlphaLISA assay was cultured in the medium above. After the cells were detached using Accutase (Innovative Cell Technologies), the cells were suspended in an assay medium, wherein Blasticidin and Zeocin were removed, then seeded into a 96-well plate for adherent cultures at 12,500 cells per well and cultured overnight. Then, BDNF or a peptide was added thereto, and the cells were further cultured in a CO2 incubator for 5 hours. After the 96-well plate was removed from the incubator and brought to room temperature, a detection reagent (LiveBLAzer (registered trademark)-FRET B/G (CCF4-AM) Substrate Mixture) was added while protected from the light, and the 96-well plate was incubated while protected from the light in a moisture box with a lid for 2 hours. For signal detection, a EnVision 2104 Multilabel Plate Reader (PerkinElmer) was used, and the ratio of fluorescence emission value (460 nm/535 nm) was calculated. The obtained numerical values were analyzed with GraphPad Prism, and the activity (%) was calculated with the maximum value of the signals induced by BDNF as 100% and a signal with no stimulation as 0%. The peptide with 50% or more activity when 1 nM of the peptide was added was evaluated as A, the peptide with 50% or more activity when 10 nM of the peptide was added was evaluated as B, and the peptide with 50% or more activity when 100 nM of the peptide was added was evaluated as C. Those that were not evaluated were listed as not tested.
The BDNF was evaluated at 7 points (0.0024 nM to 10 nM) from 10 nM using 4-fold dilutions.
For dimer structures Nos. 1 to 3, the peptide was evaluated at 1 nM, 10 nM, and 100 nM, and, for other dimer structure numbers, the peptide was evaluated at 0.1 nM, 1 nM, and 10 nM. When creating the concentration dependence curve, the BDNF and the peptides were evaluated at […] (0.006 nM to 100 nM) […] using 4-fold dilutions.

[2] = target: TrkB (Homo sapiens, UniProt Q16620); experiment: PathHunter eXpress TrkB Functional Assay (phosphorylation of TrkB); settings: stimulation for 3 hours; for Emax: maximum signal induced by BDNF = 100%
Chain of TrkB (Q16620 32-822): as above
Procedure: To evaluate the TrkB activation potency of the TrkB agonist peptide of the present invention, the phosphorylation of TrkB was examined. The PathHunter (registered trademark) eXpress TrkB Functional Assay kit (DiscoverX; cells, 96-well plate, medium, and detection reagents included) was used and the evaluation was performed according to the attached protocols. The frozen cells were thawed and suspended in the medium, then seeded into a 96-well plate at 10,000 cells per well and incubated for 48 hours. Thereafter, Recombinant Human BDNF Protein (R&D Systems) or a peptide was added, and after stimulation for 3 hours, a detection reagent was added. The reaction was performed while protected from the light at room temperature for 60 minutes, and luminescent signals were measured using a SpectraMax Paradigm Multi-Mode Microplate Reader (Molecular Devices). The obtained signals were analyzed with GraphPad Prism, and the activity (%) was calculated with the maximum value of the signals induced by BDNF as 100% and a signal with no stimulation as 0%.
The BDNF was evaluated at 8 points (0.006 nM to 100 nM) from 100 nM using 4-fold dilutions. The peptide was evaluated in the measurement ranges A to C shown below. • Measurement range A=6 points from 100 nM using 5-fold dilutions (0.032 nM to 100 nM) • Measurement range B=8 points from 100 nM using 4-fold dilutions (0.006104 nM to 100 nM) • Measurement range C=4 points from 10 nM using 10-fold dilutions (0.01 nM to 10 nM)

[3] = target: T1, TrkB (CellSensor TrkB-NFAT-bla CHO-K1 Cell); experiment: pERK1/2 AlphaLISA assay (phosphorylation of ERK) for TrkB agonist activity; settings: class = peptide concentration giving 50% or more activity; BDNF maximum signal = 100%, no stimulation = 0%; 15 minutes of stimulation
Procedure: To evaluate the TrkB activation potency of the TrkB agonist peptide of the present invention, the phosphorylation of ERK was examined. CellSensor (registered trademark) TrkB-NFAT-bla CHO-K1 Cell (Invitrogen) was cultured in DMEM, high glucose, GlutaMAX (registered trademark) Supplement, and pyruvate (Thermo), comprising 10% FBS (Thermo) and 1× Non-essential amino acids (Thermo), 25 mM HEPES (Thermo), 50 ug/mL Gentamicin, 5 ug/mL Blasticidin (Thermo), and 200 ug/mL Zeocin (Thermo). After the cells were detached using Accutase (Innovative Cell Technologies), they were seeded into a 96-well plate for adherent cultures at 12,500 cells per well and cultured overnight. The next day, for starvation, the culture solution above was replaced with a nutrient starvation medium comprising 0.1% BSA (Sigma), wherein FBS, Blasticidin, and Zeocin were removed from the culture medium, and culturing was performed for 4 hours. Thereafter, Recombinant Human BDNF Protein (R&D Systems) or a peptide was added, and after 15 minutes of stimulation, cells were lysed in the Lysis Buffer provided with the AlphaLISA SureFire Ultra p-Erk1/2 (Thr202/Tyr204) assay kit (PerkinElmer). The assay was performed according to the kit protocol. The signals were detected using a SpectraMax Paradigm Multi-Mode Microplate Reader (Molecular Devices). The obtained signals were analyzed with GraphPad Prism, and the activity (%) was calculated with the maximum value of the signals induced by BDNF as 100% and a signal with no stimulation as 0%. The peptide with 50% or more activity when 1 nM of the peptide was added was evaluated as A, and the peptide with 50% or more activity when 10 nM of the peptide was added was evaluated as B.
The BDNF was evaluated at 8 points (0.0006 nM to 10 nM) from 10 nM using 4-fold dilutions.
For dimer structures Nos. 1 to 3, the peptide was evaluated at 1 nM, 10 nM, and 100 nM, and, for other dimer structure numbers, the peptide was evaluated at 0.1 nM, 1 nM, and 10 nM. When creating the concentration dependence curve, the BDNF and the peptides were evaluated at 8 points (0.006 nM to 100 nM) from 100 nM using 4-fold dilutions.

With CC(C)[C@@H]1NC(=O)[C@H](Cc2cccnc2)NC(=O)[C@H](CCC(=O)O)NC(=O)[C@H](CO)NC(=O)[C@H](Cc2ccc(O)cc2)NC(=O)[C@H]([C@@H](C)O)NC(=O)[C@@H]2CCCN2C(=O)[C@H](Cc2c[nH]c3ccccc23)NC(=O)[C@H](Cc2cccnc2)NC(=O)[C@H](Cc2ccc(O)cc2)NC(=O)[C@@H]2CCCN2C(=O)[C@H](CCC(=O)O)NC(=O)[C@H](Cc2ccccc2)NC(=O)CSCC(C(=O)NCC(=O)N[C@@H](CCCCNC(=O)OCCOCCOCCOCCOCCOCCOCCOCCOCCOCCOCCOCCOC(=O)NCCCCC(NC(=O)CNC(=O)[C@@H]2CSCC(=O)N[C@@H](Cc3ccccc3)C(=O)N[C@@H](CCC(=O)O)C(=O)N3CCCC3C(=O)N[C@@H](Cc3ccc(O)cc3)C(=O)N[C@@H](Cc3cccnc3)C(=O)N[C@@H](Cc3c[nH]c4ccccc34)C(=O)N3CCCC3C(=O)N[C@@H]([C@@H](C)O)C(=O)N[C@@H](Cc3ccc(O)cc3)C(=O)N[C@@H](CO)C(=O)N[C@@H](CCC(=O)O)C(=O)N[C@@H](Cc3cccnc3)C(=O)N[C@@H](C(C)C)C(=O)N[C@@H](CCC(=O)O)C(=O)N2)C(N)=O)C(N)=O)NC(=O)[C@H](CCC(=O)O)NC1=O (stereo partly shown) [Dimer Structure No. 57] (I: {CH2CO}-FEPY[3Pal]WPTYSE[3Pal]VE[ξC]GK-NH2 / II: {CH2CO}-FE[ξP]Y[3Pal]W[ξP]TYSE[3Pal]VECG[ξK]-NH2; linker I:17-II:17 via X1; thioether I:N-I:15, II:N-II:15) the “NFAT Assay Results” value [1] was “B (the peptide with 50% or more activity when 10 nM of the peptide was added was evaluated as B)”, the Emax [2] was 89% and the EC50 [2] was 0.8 to 4 nM. For the same molecule, the “pERK (aLISA) Assay Results” value [3] was “B (the peptide with 50% or more activity when 10 nM of the peptide was added was evaluated as B)”.

In the case of CC(C)C[C@@H]1NC(=O)[C@H](Cc2ccccc2)NC(=O)CSC[C@@H](C(=O)NCC(=O)NCCOCCOCCOCCOCCOCCOCCOCCOCCC(=O)NCCCC[C@H](NC(=O)CCOCCOCCOCCOCCOCCOCCOCCOCCNC(=O)CNC(=O)[C@@H]2CSCC(=O)N[C@@H](Cc3ccccc3)C(=O)N[C@@H](CC(C)C)C(=O)N3CCC[C@H]3C(=O)N[C@@H](Cc3ccc(O)cc3)C(=O)N[C@@H](Cc3cccnc3)C(=O)N[C@@H](Cc3c[nH]c4ccccc34)C(=O)N3CCC[C@H]3C(=O)N[C@@H]([C@@H](C)O)C(=O)N[C@@H](Cc3ccc(O)cc3)C(=O)N[C@@H](CO)C(=O)N[C@@H](CCC(=O)O)C(=O)N[C@@H](Cc3cccnc3)C(=O)N[C@@H](C(C)C)C(=O)N[C@@H](CCC(=O)O)C(=O)N2)C(N)=O)NC(=O)[C@H](CCC(=O)O)NC(=O)[C@H](C(C)C)NC(=O)[C@H](Cc2cccnc2)NC(=O)[C@H](CCC(=O)O)NC(=O)[C@H](CO)NC(=O)[C@H](Cc2ccc(O)cc2)NC(=O)[C@H]([C@@H](C)O)NC(=O)[C@@H]2CCCN2C(=O)[C@H](Cc2c[nH]c3ccccc23)NC(=O)[C@H](Cc2cccnc2)NC(=O)[C@H](Cc2ccc(O)cc2)NC(=O)[C@@H]2CCCN2C1=O [compound 14] (I: {CH2CO}-FLPY[3Pal]WPTYSE[3Pal]VECG[PEG8]K-NH2 / II: {CH2CO}-FLPY[3Pal]WPTYSE[3Pal]VECG[PEG8]; amide I:18-II:C (inferred); thioether I:N-I:15, II:N-II:15 (inferred)), the “NFAT Assay Results” value [1] is reported as “A (The peptide with 50% or more activity when 1 nM of the peptide was added was evaluated as A)”, the Emax [2] is reported as 86% and the “pERK (aLISA) Assay Results” value [3] is reported as “A (The peptide with 50% or more activity when 1 nM of the peptide was added was evaluated as A)”.

For CC(C)[C@@H]1NC(=O)[C@H](Cc2cccnc2)NC(=O)[C@H](CCC(=O)O)NC(=O)[C@H](CO)NC(=O)[C@H](Cc2ccc(O)cc2)NC(=O)[C@H]([C@@H](C)O)NC(=O)[C@@H]2CCCN2C(=O)[C@H](Cc2c[nH]c3ccccc23)NC(=O)[C@H](Cc2cccnc2)NC(=O)[C@H](Cc2ccc(O)cc2)NC(=O)[C@@H]2CCCN2C(=O)[C@H](CO)NC(=O)[C@H](Cc2ccccc2)NC(=O)CSC[C@@H](C(=O)NCC(=O)NCCOCCOCCOCCOCCOCCOCCOCCOCCC(=O)NCCCC[C@H](NC(=O)CCOCCOCCOCCOCCOCCOCCOCCOCCNC(=O)CNC(=O)[C@@H]2CSCC(=O)N[C@@H](Cc3ccccc3)C(=O)N[C@@H](CO)C(=O)N3CCC[C@H]3C(=O)N[C@@H](Cc3ccc(O)cc3)C(=O)N[C@@H](Cc3cccnc3)C(=O)N[C@@H](Cc3c[nH]c4ccccc34)C(=O)N3CCC[C@H]3C(=O)N[C@@H]([C@@H](C)O)C(=O)N[C@@H](Cc3ccc(O)cc3)C(=O)N[C@@H](CO)C(=O)N[C@@H](CCC(=O)O)C(=O)N[C@@H](Cc3cccnc3)C(=O)N[C@@H](C(C)C)C(=O)N[C@@H](CCC(=O)O)C(=O)N2)C(N)=O)NC(=O)[C@H](CCC(=O)O)NC1=O [compound 15] (I: {CH2CO}-FSPY[3Pal]WPTYSE[3Pal]VECG[PEG8]K-NH2 / II: {CH2CO}-FSPY[3Pal]WPTYSE[3Pal]VECG[PEG8]; amide I:18-II:C (inferred); thioether I:N-I:15, II:N-II:15 (inferred)), the “NFAT Assay Results” value [1] was “A (The peptide with 50% or more activity when 1 nM of the peptide was added was evaluated as A)”, the Emax [2] was 104% and the “pERK (aLISA) Assay Results” value [3] was “A (The peptide with 50% or more activity when 1 nM of the peptide was added was evaluated as A)”.
